Test results: US20210330611A1, “THERAPY FOR NEUROLOGICAL DISEASES/DISORDERS” (priority 2020, published 2021)
Structures can show the parent of a compound that is named as a salt. Where two headings read alike, the source gives them in different places.

How the values were obtained:
[1] = test system: fibrin-induced microglia activation; assay: Image-based assay of fibrin-induced microglia activation (HTS and dose response); assay type: cell-based, rat; conditions: for inhibition at 10 µM: read-out: Fibrin % inhibition
[2] = test system: LPS-induced microglia activation; assay: Image-based assay of LPS-induced microglia activation (HTS and dose response); assay type: cell-based, rat; conditions: for inhibition at 10 µM: read-out: LPS % inhibition
[3] = test system: fibrin- and LPS-induced microglia activation; assay: cells; assay type: cell-based, rat
primary rat microglia [4] = test system: primary rat microglia;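 on Fibrin % cell toxicity: share of dead cells sized under 150 µm2 at 10 µM in fibrin-stimulated microglia HTS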
primary rat microglia [5] = test system: primary rat microglia; remark: listed apart in the source;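 on Fibrin % cell toxicity: share of dead cells sized under 150 µm2 at 10 µM in fibrin-stimulated microglia HTS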
[6] = Rattus norvegicus, Microglia, primary HTS, 10 μM, fibrin-stimulated primary microglia
[7] = Rattus norvegicus, Microglia, primary HTS, 10 μM, LPS-stimulated primary microglia
[8] = primary microglia HTS, fibrin stimulation, compounds at 10 μM
[9] = primary microglia HTS, LPS stimulation, compounds at 10 μM
[10] = classification by fibrin and LPS inhibition, HTS at 10 μM
[11] = Rattus norvegicus, Microglia, primary microglia HTS, fibrin stimulation, compounds at 10 μM
[12] = Rattus norvegicus, Microglia, primary microglia HTS, LPS stimulation, compounds at 10 μM
[13] = Rattus norvegicus, Microglia, primary microglia HTS, fibrin stimulation, increased cell size (>800 μm^2) as marker of activation
[14] = Rattus norvegicus, Microglia, 48 h, primary microglia HTS, LPS stimulation, increased cell size (>800 μm^2) as marker of activation
[15] = quadrant by fibrin and LPS inhibition in HTS of 1907 compounds

SMILES: Nc1nc(Cl)nc2c1ncn2[C@H]1C[C@H](O)[C@@H](CO)O1 [Cladribine]
- inhibition at 10 µM [1, 6]: -23%
- inhibition at 10 µM [2, 7]: 6%
- Quadrant (FIG. 5b) ([3]; primary HTS, 10 μM): Q4
- Fibrin % cell toxicity (primary rat microglia [4]; rat): 1%
- LPS % cell toxicity (primary rat microglia [5]; rat): 0%

SMILES: CC[C@H]1OC(=O)[C@H](C)[C@@H](O[C@H]2C[C@@](C)(OC)[C@@H](O)[C@H](C)O2)[C@H](C)[C@@H](O[C@@H]2O[C@H](C)C[C@H](N(C)C)[C@H]2O)[C@](C)(OC)C[C@@H](C)C(=O)[C@H](C)[C@@H](O)[C@]1(C)O [Clarithromycin]
- inhibition at 10 µM [1, 6]: -7%
- inhibition at 10 µM [2, 7]: 18%
- Quadrant (FIG. 5b) ([3]; primary HTS, 10 μM): Q4
- Fibrin % cell toxicity (primary rat microglia [4]; rat): 1%
- LPS % cell toxicity (primary rat microglia [5]; rat): 0%

SMILES: Clc1ccc(Cn2c(CN3CCCC3)nc3ccccc32)cc1 [Clemizole Hydrochloride]
- inhibition at 10 µM [1, 6]: -38%
- inhibition at 10 µM [2, 7]: 21%
- Quadrant (FIG. 5b) ([3]; primary HTS, 10 μM): Q4
- Fibrin % cell toxicity (primary rat microglia [4]; rat): 0%
- LPS % cell toxicity (primary rat microglia [5]; rat): 1%

SMILES: CC(C)(C)NCC(O)c1cc(Cl)c(N)c(Cl)c1 (stereo not shown) [Clenbuterol]
- inhibition at 10 µM [1, 6]: 11%
- inhibition at 10 µM [2, 7]: 25%
- Quadrant (FIG. 5b) ([3]; primary HTS, 10 μM): Q4
- Fibrin % cell toxicity (primary rat microglia [4]; rat): 1%
- LPS % cell toxicity (primary rat microglia [5]; rat): 0%

SMILES: CCN(CC)CCOc1ccc(C(=C(Cl)c2ccccc2)c2ccccc2)cc1 [Clomiphene]
- inhibition at 10 µM ([1]; Rattus norvegicus, Microglia): 11%
- inhibition at 10 µM ([2]; Rattus norvegicus, Microglia): 7%
- Quadrant (FIG. 5b) [3]: Q4
- Fibrin % cell toxicity (primary rat microglia [4]; rat): 1%
- LPS % cell toxicity (primary rat microglia [5]; rat): 0%

SMILES: CN(C)CCCN1c2ccccc2CCc2ccc(Cl)cc21 [Clomipramine]
- inhibition at 10 µM ([1]; Rattus norvegicus, Microglia): -1%
- inhibition at 10 µM ([2]; Rattus norvegicus, Microglia): 32%
- Quadrant (FIG. 5b) [3]: Q4
- Fibrin % cell toxicity (primary rat microglia [4]; rat): 1%
- LPS % cell toxicity (primary rat microglia [5]; rat): 1%

SMILES: Clc1cccc(Cl)c1N=C1NCCN1 [Clonidine]
- inhibition at 10 µM ([1]; Rattus norvegicus, Microglia): -22%
- inhibition at 10 µM ([2]; Rattus norvegicus, Microglia): 14%
- Quadrant (FIG. 5b) [3]: Q4
- Fibrin % cell toxicity (primary rat microglia [4]; rat): 1%
- LPS % cell toxicity (primary rat microglia [5]; rat): 0%

SMILES: COC(=O)[C@H](c1ccccc1Cl)N1CCc2sccc2C1 [Clopidogrel]
- inhibition at 10 µM ([1]; Rattus norvegicus, Microglia): -24%
- inhibition at 10 µM ([2]; Rattus norvegicus, Microglia): 7%
- Quadrant (FIG. 5b) [3]: Q4
- Fibrin % cell toxicity (primary rat microglia [4]; rat): 1%
- LPS % cell toxicity (primary rat microglia [5]; rat): 0%

SMILES: Nc1cc(C(Cl)=C(Cl)Cl)c(S(N)(=O)=O)cc1S(N)(=O)=O [Clorsulon]
- inhibition at 10 µM ([1]; Rattus norvegicus, Microglia): 0%
- inhibition at 10 µM ([2]; Rattus norvegicus, Microglia): 17%
- Quadrant (FIG. 5b) [3]: Q4
- Fibrin % cell toxicity (primary rat microglia [4]; rat): 0%
- LPS % cell toxicity (primary rat microglia [5]; rat): 0%

SMILES: Clc1ccccc1C(c1ccccc1)(c1ccccc1)n1ccnc1 [Clotrimazole]
- inhibition at 10 µM ([1]; Rattus norvegicus, Microglia): -13%
- inhibition at 10 µM ([2]; Rattus norvegicus, Microglia): 13%
- Quadrant (FIG. 5b) [3]: Q4
- Fibrin % cell toxicity (primary rat microglia [4]; rat): 1%
- LPS % cell toxicity (primary rat microglia [5]; rat): 0%

SMILES: CN1CCN(C2=Nc3cc(Cl)ccc3Nc3ccccc32)CC1 [Clozapine]
- inhibition at 10 µM ([1]; Rattus norvegicus, Microglia): 3%
- inhibition at 10 µM ([2]; Rattus norvegicus, Microglia): 9%
- Quadrant (FIG. 5b) [3]: Q4
- Fibrin % cell toxicity (primary rat microglia [4]; rat): 0%
- LPS % cell toxicity (primary rat microglia [5]; rat): 0%

SMILES: COc1cc2c(c(OC)c1OC)-c1ccc(OC)c(=O)cc1[C@@H](NC(C)=O)CC2 [Colchicine, reference compound]
- inhibition at 10 µM ([1]; Rattus norvegicus, Microglia): 114%
- inhibition at 10 µM ([2]; Rattus norvegicus, Microglia, 48 h): 113%
- Activity [3]: fib/LPS
- Quadrant (FIG. 5b) [3]: Q2
- Fibrin % cell toxicity (primary rat microglia [4]; rat): 12%
- LPS % cell toxicity (primary rat microglia [5]; rat): 10%

SMILES: CC=CC(=O)N(CC)c1ccccc1C [Crotamiton]
- Fibrin % inhibition [1, 8]: 12%
- LPS % inhibition [2, 9]: 3%
- Quadrant (FIG. 5b) [3, 10]: Q4
- Fibrin % cell toxicity (primary rat microglia [4]): 0%
- LPS % cell toxicity (primary rat microglia [5]): 0%

SMILES: O=S(=O)(O)NC1CCCCC1 [Cyclamic Acid]
- inhibition at 10 µM ([1]; Rattus norvegicus, Microglia): 4%
- inhibition at 10 µM ([2]; Rattus norvegicus, Microglia): 13%
- Quadrant (FIG. 5b) [3]: Q4
- Fibrin % cell toxicity (primary rat microglia [4]; rat): 0%
- LPS % cell toxicity (primary rat microglia [5]; rat): 0%

SMILES: CN(C)CCC=C1c2ccccc2C=Cc2ccccc21 [Cyclobenzaprine]
- inhibition at 10 µM ([1]; Rattus norvegicus, Microglia): -29%
- inhibition at 10 µM ([2]; Rattus norvegicus, Microglia): 35%
- Quadrant (FIG. 5b) [3]: Q4
- Fibrin % cell toxicity (primary rat microglia [4]; rat): 0%
- LPS % cell toxicity (primary rat microglia [5]; rat): 1%

SMILES: CN1CCC(=C2c3ccccc3C=Cc3ccccc32)CC1 [Cyproheptadine]
- inhibition at 10 µM ([1]; Rattus norvegicus, Microglia): 24%
- inhibition at 10 µM ([2]; Rattus norvegicus, Microglia): 43%
- Quadrant (FIG. 5b) [3]: Q4
- Fibrin % cell toxicity (primary rat microglia [4]; rat): 1%
- LPS % cell toxicity (primary rat microglia [5]; rat): 1%

SMILES: NCCS [Cysteamine]
- inhibition at 10 µM ([1]; Rattus norvegicus, Microglia): 9%
- inhibition at 10 µM ([2]; Rattus norvegicus, Microglia): 12%
- Quadrant (FIG. 5b) [3]: Q4
- Fibrin % cell toxicity (primary rat microglia [4]; rat): 0%
- LPS % cell toxicity (primary rat microglia [5]; rat): 0%

SMILES: Nc1ccn([C@@H]2O[C@H](CO)[C@@H](O)[C@@H]2O)c(=O)n1 [Cytarabine]
- inhibition at 10 µM [1, 11]: -19%
- inhibition at 10 µM [2, 12]: 14%
- Quadrant (FIG. 5b) [3, 10]: Q4
- Fibrin % cell toxicity (primary rat microglia [4]; rat): 0%
- LPS % cell toxicity (primary rat microglia [5]; rat): 0%

SMILES: O=c1cccc2n1C[C@@H]1CNC[C@H]2C1 [Cytisine]
- inhibition at 10 µM ([1]; Rattus norvegicus, Microglia): 23%
- inhibition at 10 µM ([2]; Rattus norvegicus, Microglia): 16%
- Quadrant (FIG. 5b) [3]: Q4
- Fibrin % cell toxicity (primary rat microglia [4]; rat): 1%
- LPS % cell toxicity (primary rat microglia [5]; rat): 1%

SMILES: CC12CCC(CC1=O)C2(C)C [D-camphor]
- Fibrin % inhibition [1, 8]: −32%
- LPS % inhibition [2, 9]: 6%
- Quadrant (FIG. 5b) [3, 10]: Q4
- Fibrin % cell toxicity (primary rat microglia [4]): 0%
- LPS % cell toxicity (primary rat microglia [5]): 0%

SMILES: O.OC[C@@H](O)[C@@H](O[C@@H]1O[C@H](CO)[C@H](O)[C@H](O)[C@H]1O)[C@H](O)[C@@H](O)CO [D-lactitol Monohydrate]
- Fibrin % inhibition [1, 8]: 11%
- LPS % inhibition [2, 9]: 16%
- Quadrant (FIG. 5b) [3, 10]: Q4
- Fibrin % cell toxicity (primary rat microglia [4]): 1%
- LPS % cell toxicity (primary rat microglia [5]): 0%

SMILES: CN(C)/N=N/c1[nH]cnc1C(N)=O [Dacarbazine]
- inhibition at 10 µM [1, 11]: -13%
- inhibition at 10 µM [2, 12]: 17%
- Quadrant (FIG. 5b) [3, 10]: Q4
- Fibrin % cell toxicity (primary rat microglia [4]; rat): 0%
- LPS % cell toxicity (primary rat microglia [5]; rat): 0%

SMILES: O=C1CN(/N=C/c2ccc(-c3ccc([N+](=O)[O-])cc3)o2)C(O)=N1 [Dantrolene]
- inhibition at 10 µM [1, 11]: -6%
- inhibition at 10 µM [2, 12]: 14%
- Quadrant (FIG. 5b) [3, 10]: Q4
- Fibrin % cell toxicity (primary rat microglia [4]; rat): 1%
- LPS % cell toxicity (primary rat microglia [5]; rat): 0%

SMILES: Nc1ccc(S(=O)(=O)c2ccc(N)cc2)cc1 [Dapsone]
- inhibition at 10 µM [1, 11]: -23%
- inhibition at 10 µM [2, 12]: 11%
- Quadrant (FIG. 5b) [3, 10]: Q4
- Fibrin % cell toxicity (primary rat microglia [4]; rat): 1%
- LPS % cell toxicity (primary rat microglia [5]; rat): 0%

SMILES: COc1cccc2c1C(=O)c1c(O)c3c(c(O)c1C2=O)C[C@@](O)(C(C)=O)C[C@@H]3O[C@H]1C[C@H](N)[C@H](O)[C@H](C)O1 [Daunorubicin]
- inhibition at 10 µM [1, 13]: 116%
- inhibition at 10 µM [2, 14]: 114%
- Quadrant (FIG. 5b) [3, 15]: Q2
- Fibrin % cell toxicity (primary rat microglia [4]; rat): 77%
- LPS % cell toxicity (primary rat microglia [5]; rat): 57%

SMILES: Cc1c(O)c(=O)ccn1C [Deferiprone]
- inhibition at 10 µM [1, 11]: 31%
- inhibition at 10 µM [2, 12]: 18%
- Quadrant (FIG. 5b) [3, 10]: Q4
- Fibrin % cell toxicity (primary rat microglia [4]; rat): 1%
- LPS % cell toxicity (primary rat microglia [5]; rat): 0%

SMILES: CC(=O)C1C(=O)C=C(C)OC1=O (stereo not shown) [Dehydroacetic Acid]
- inhibition at 10 µM [1, 11]: -36%
- inhibition at 10 µM [2, 12]: 2%
- Quadrant (FIG. 5b) [3, 10]: Q4
- Fibrin % cell toxicity (primary rat microglia [4]; rat): 0%
- LPS % cell toxicity (primary rat microglia [5]; rat): 0%

SMILES: CNCCCN1c2ccccc2CCc2ccccc21 [Desipramine hydrochloride, reference compound]
- IC50 ([1]; Rattus norvegicus, Microglia, Table 7, read-out: fib_IC50): 1620 nM
- inhibition at 10 µM [1, 13]: -2%
- inhibition at 10 µM [2, 14]: 83%
- IC50 ([2]; Rattus norvegicus, Microglia, Table 7, read-out: LPS_IC50): 2 nM
- Activity [3]: fib/LPS
- Quadrant (FIG. 5b) ([3]; Table 2, screen at 10 μM): Q1
- Quadrant (FIG. 5b) [3, 15]: Q1
- Fibrin % cell toxicity (primary rat microglia [4]; rat): 1%
- LPS % cell toxicity (primary rat microglia [5]; rat): 4%
